Results: patent US20240299334A1, “PHARMACEUTICAL COMPOSITION OF NAPHTHALENE DERIVATIVES AS MULTI-TARGETED THERAPEUTIC AGENTS FOR THE TREATMENT OF ALZHEIMER'S DISEASE” (CENTRO DE NEUROCIENCIAS DE CUBA, CNEURO, priority 2020, published 2024)

Experiments:
[1] = tested on: memory loss induced by an acute administration of scopolamine (ESC); test: Y-maze, short-term spatial memory, acute scopolamine (ESC) model; type: in vivo, mice
Procedure: Young male OF-1 mice (20-25 g), supplied by the National Center for the Laboratory Animals Production (CENPALAB, Cuba), were used. Before the experiment, the animals were adapted for seven days to laboratory conditions (controlled temperature 25±2° C., relative humidity 60±10% and light/dark cycles of 12 h). During this period, and during the experiment, the animals received ad libitum water and a standard diet for rodents supplied by CENPALAB. All procedures were carried out in accordance with the European Commission guidelines for the use and care of laboratory animals and approved by the Committee for the Care of Research Animals. The minimum number of animals and duration of observations required to obtain consistent data was used.
At the end of the adaptation period, the animals were randomly distributed according to their body weights in 5 experimental groups of 12 animals per group. Scopolamine hydrobromohydrate (ESC, Sigma Aldrich) was used to induce cognitive deficit, which was dissolved in physiological saline and administered intraperitoneally (ip) at a dose of 1.5 mg/kg, 30 minutes before the test (Miranda H F et al. in. J. Biomed. Sci., 2014 21 (1): 62-62). The doses of compound 3 used were 0.1, 1, 10 and 20 mg/kg of body weight. The compound was formulated using carboxymethyl cellulose (CMC). The administration scheme was designed as follows:
Group 1 (negative control) with normal cognitive function. Two administrations with an interval of 30 minutes with vehicle (5% CMC) by oral route and saline solution by i.p. route, respectively.
Group 2 (positive control) with cognitive dysfunction. Two administrations with an interval of 30 minutes, the first with vehicle (5% CMC), the second with ESC 1 mg/kg.
Group 3, 4, 5 and 6 treated with 3 (0.1, 1, 10 and 20 mg/kg). Two administrations with an interval of 30 minutes, the first with 3 at the dose corresponding to each group, the second with ESC 1 mg/kg. The behavioral evaluation was carried out 30 minutes after this second administration.
The study of short-term spatial memory was carried out through the study of novel spatial preference, using the Y-maze behavioral paradigm (40 cm long×9 cm wide×16 cm high) with extra-labyrinthine tracks around of the maze. The test consisted of two trials separated by an interval of 2 hours. In the first training test (acquisition), the mice were placed in the center of the maze and facing the end of one of the arms whose selection was random. After being positioned, they were allowed to explore the maze for 10 minutes with one of the arms closed (novel arm). At the end of this test, the mice were returned to their original cage until the second test (recovery), during which they could freely explore the three arms of the maze for 5 minutes. The total residence time (exploration) in each arm was measured and analyzed from video recordings. The entrance to the arm was defined as the entrance of the four legs of the animal in said arm. The residence time (sec) in each arm during the recovery test of the learned task was used for the statistical analysis. The maze was cleaned with 70% ethanol between runs. All mice were transported to the behavioral testing room in their home cages at least 1 day prior to testing. The experiments were carried out between 8:00 am and 12:30 pm.
All data are expressed as the mean±standard error of the mean (SEM). The Morris water maze data was analyzed in two ways. Escape latencies in the visible platform training phase were analyzed using a two-factor ANOVA (treatment×trial). For the study of long-term memory, the last escape latency value of the training phase with the visible platform (D1 V4) and the first value of the test with the hidden platform performed 24 h later (D2T1) were used. Mice with intact long-term memory capacity should quickly reach the hidden platform in the first test. A scoring system was generated with the difference D2T1−D1 V4 and with the ratio D2T1/D1V4. […]

[2] = tested on: mitochondria isolated from rat liver; test: Production of H2O2 / reactive oxygen species (Amplex Red) in isolated mitochondria; type: biochemical; details: dose range tested (0.1-100 μmol/L)
Procedure: Isolation of rat mitochondria: Mitochondria were isolated by the classical method of differential centrifugation from the liver of male Wistar rats (Mirandola S R, et al., in J Neurosci Res 2010; 88: 630-39).
Incubation procedures: Mitochondria were energized with 5 mmol/L potassium succinate (plus 2.5 μmol/L rotenone) in standard incubation medium containing 125 mmol/L sucrose, 65 mmol/L KCl and 10 mmol/L of HEPES-KOH, pH 7.4, at 30° C.
Mitochondrial membrane potential and ROS were determined by spectrophotometry, using as fluorescent probes, respectively, safranin (10 μmol/L) (Zanotti A., and Azzone G F in Archives of Biochemistry and Biophysics 1980, 201 (1), 255-265) and Amplex Red (Molecular Probes, OR, Eugene) in the presence of horseradish peroxidase (1 IU/mL) (Votyakova and Reynolds, in J Neurochem. 2001, 79 (2), 266-77). Measurements were made in a Hitachi fluorescence spectrophotometer, model F-4500 (Tokyo, Japan) at λexc 495/λem 586 nm (safranin) and at λexc 563/λem 587 nm (Amplex Red). These experiments were carried out in the presence of 0.1 mmol/L of EGTA and the evaluated compound was N-[4-(1-naphthylamino)-4-oxobutanoyl]-β-alanine (1) in a concentration range of 0.1 to 100 μmol/L. Mitochondrial swelling was estimated spectrophotometrically from the decrease in absorbance at 540 nm, using a Hitachi spectrophotometer, Model U-2910 (Japan). […]

[3] = tested on: mitochondria isolated from rat liver; test: Mitochondrial swelling induced by Ca2+ and Pi (absorbance 540 nm); type: biochemical; details: induced by 50 μmol/L Ca2+ and 2 mmol/L Pi; similar concentrations (0.1-100 μmol/L)
Source text: In this case, it was observed that in the control group (in the presence of Ca^2+) the maximum absorbance values are shown, as a measure of maximum swelling. […] These effects correspond to the observed effects on the dissipation of the mitochondria membrane potential.
Isolation of rat mitochondria: Mitochondria were isolated by the classical method of differential centrifugation from the liver of male Wistar rats (Mirandola S R, et al., in J Neurosci Res 2010; 88: 630-39). […]
Mitochondrial membrane potential and ROS were determined by spectrophotometry, using as fluorescent probes, respectively, safranin (10 μmol/L) (Zanotti A., and Azzone G F in Archives of Biochemistry and Biophysics 1980, 201 (1), 255-265) and Amplex Red (Molecular Probes, OR, Eugene) in the presence of horseradish peroxidase (1 IU/mL) (Votyakova and Reynolds, in J Neurochem. 2001, 79 (2), 266-77). Measurements were made in a Hitachi fluorescence spectrophotometer, model F-4500 (Tokyo, Japan) at λexc 495/λem 586 nm (safranin) and at λexc 563/λem 587 nm (Amplex Red). […]
Data analysis: In all cases, the normal distribution and homogeneity of variances of the data were evaluated using the Kolmogorov Smirnov and Levene tests, respectively. […]

CN1[C@@H]2C[C@@H](OC(=O)[C@H](CO)c3ccccc3)C[C@H]1[C@@H]1O[C@@H]12 [ESC, Scopolamine hydrobromohydrate, reference compound]
residence time in the novel arm ([1]; ESC group (control group 133.8±9.3 sec), p<0.001): 98.8 ± 4.2 s

O=C(O)CCNC(=O)CCC(=O)Nc1cccc2ccccc12 [compound 1, N-[4-(1-naphthylamino)-4-oxobutanoyl]-β-alanine]
production of hydrogen peroxide (H2O2) [2]: protects against H2O2 production
mitochondrial swelling (absorbance at 540 nm) [3]: reverses the effect of Ca^2+-induced swelling

COc1cc2c(cc1OC)C(=O)C(CC1CCN(Cc3ccccc3)CC1)C2 (centres unmarked) [donepezil, reference compound]
deficit induced by ESC in Y-maze ([1]; donepezil 1 mg/kg, ip, 30 minutes before the test): also reversed the deficit induced by ESC
residence time in the novel arm ([1]; donepezil group vs ESC): significantly longer than that of ESC
